From US20030130123A1, “2-Phenyl-2h-pyridazine-3-ones” (priority 2000, published 2003)

What was measured:
COMBE (dayflower) = experiment: Greenhouse herbicidal action, postemergence treatment; format: in vivo; conditions: 100 = complete destruction, 0 = no damage
Excerpt: (§1) The herbicidal action of the 2-phenylpyridazin-3-one compounds of the formula I could be shown by means of greenhouse experiments: […]
(§2) The cultivation containers used were plastic pots containing loamy sand with approximately 3.0% of humus as a substrate. The seeds of the test plants were sown separately according to species.
(§3) For the purpose of postemergence treatment, the test plants were first raised up to a growth height of 3 to 15 cm, depending on growth form, and then treated with the active compounds suspended or emulsified in water. For this, the test plants were either sown directly and raised in the same containers or they were first raised separately as seedlings and transplanted into the experimental containers a few days before the treatment. The application rate for the postemergence treatment was 15.6 or 7.8 g of a.s./ha.
(§4) The plants were kept species-specifically at temperature from 10-25° C. or 20-35° C. The experimental period extended over 2 to 4 weeks. During this time, the plants were tended, and their reaction to the individual treatments was assessed.
(§5) Assessment was carried out on a scale from 0 to 100. 100 here means no emergence of the plants or complete destruction of at least the above-ground parts and 0 means no damage or normal course of growth.
(§6) The plants used in the greenhouse experiments were made up of the following species:
(§7) The compound Ia.4 from Example 1 and the compound of Example 1-637 (X=H), disclosed in WO 97/07104, were tested in the postemergence process in the manner described.

IPOSS (morning glory) = experiment: as above; format: in vivo; conditions: 100 = complete destruction, 0 = no damage
Excerpt: as §1, §2, §3, §4, §5, §6, §7

[1] = tested on: BIDPI (hairy beggarticks); experiment: as above; format: in vivo; conditions: 100 = complete destruction, 0 = no damage
Excerpt: as §1, §2, §3, §4, §5, §6, §7

GALAP (catchweed) = experiment: as above; format: in vivo; conditions: 100 = complete destruction, 0 = no damage
Excerpt: as §1, §2, §3, §4, §5, §6, §7

ABUTH (velvetleaf) = experiment: as above; format: in vivo; conditions: 100 = complete destruction, 0 = no damage
Excerpt: as §1, §2, §3, §4, §5, §6, §7

[2] = application rate 7.8 g/ha (a.s.)
[3] = application rate 15.6 g/ha (a.s.)

CCOC(=O)C(Cl)=Cc1cc(-n2ncc(C(F)(F)F)c(C)c2=O)ccc1Cl [Ia.4, 2-[4-Chloro-3-(2-ethoxycarbonyl-2-chloroethen-1-yl)phenyl]-4-methyl-5-trifluoromethyl-2H-pyridazin-3-one]
Herbicidal action, assessment on a scale from 0 to 100 (COMBE (dayflower); [2]): 100
Herbicidal action, assessment on a scale from 0 to 100 (COMBE (dayflower); [3]): 100
Herbicidal action, assessment on a scale from 0 to 100 (IPOSS (morning glory); [2]): 100
Herbicidal action, assessment on a scale from 0 to 100 (IPOSS (morning glory); [3]): 100
Herbicidal action, assessment on a scale from 0 to 100 [1, 2]: 80
Herbicidal action, assessment on a scale from 0 to 100 [1, 3]: 98
Herbicidal action, assessment on a scale from 0 to 100 (GALAP (catchweed); [2]): 100
Herbicidal action, assessment on a scale from 0 to 100 (GALAP (catchweed); [3]): 100
Herbicidal action, assessment on a scale from 0 to 100 (ABUTH (velvetleaf); [2]): 100
Herbicidal action, assessment on a scale from 0 to 100 (ABUTH (velvetleaf); [3]): 100

COCCOC(=O)C(Cl)=Cc1cc(-n2ncc(C(F)(F)F)c(C)c2=O)ccc1Cl [Ia.12, 2-{4-Chloro-3-[2-(2-methoxyethoxy)carbonyl-2-chloroethen-1-yl]phenyl}-4-methyl-5-trifluoromethyl-2H-pyridazin-3-one]
melting point: 60 to 62 °C

Cc1c(C(F)(F)F)cnn(-c2ccc(Cl)c(C=C(Cl)C(=O)OCCC#N)c2)c1=O [Ia.16, 2-{4-Chloro-3-[2-(2-cyanoethoxy)carbonyl-2-chloroethen-1-yl]phenyl}-4-methyl-5-trifluoromethyl-2H-pyridazin-3-one]
melting point: 78 to 79 °C

C=CCOC(=O)C(Cl)=Cc1cc(-n2ncc(C(F)(F)F)c(C)c2=O)ccc1Cl [Ia.41, 2-[4-Chloro-3-(2-allyloxycarbonyl-2-chloroethen-1-yl)phenyl]-4-methyl-5-trifluoromethyl-2H-pyridazin-3-one]
melting point: 62 to 63 °C

C#CCOC(=O)C(Cl)=Cc1cc(-n2ncc(C(F)(F)F)c(C)c2=O)ccc1Cl [Ia.42, 2-[4-Chloro-3-(2-propargyloxycarbonyl-2-chloroethen-1-yl)phenyl]-4-methyl-5-trifluoromethyl-2H-pyridazin-3-one]
melting point: 81 to 82 °C
